Measured values as given in patent US9597314B2, “Beta-lactamylalkanoic acids for treating premenstrual disorders” (AZEVAN PHARMACEUTICALS, INC., priority 2005, dated 2017).

How the values were obtained:
V1a [1] = target: T1, V1a (Homo sapiens, UniProt P37288); assay: Human vasopression V1a receptor binding assay; set-up: host or cells: CHO cells (hV1a cell line), whole adherent cells; details: hV1a cell line (CHO); for Ki: Table 18; for IC50: 1 nM 3H-AVP, Table 17, read-out: V1a Binding Affinity (IC50 (nM))
In short: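 Whole CHO cells stably expressing human V1a receptor competed 1 nM 3H-AVP against 10-fold serial compound dilutions (DMSO) in pH 7.0 Hepes/BSA/DMEM buffer, 45 min at 37° C.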

vasopressin V1a receptor = target: T2, vasopressin V1a receptor (Homo sapiens, UniProt P37288); assay: Inhibition of phosphatidylinositol turnover; type: cell-based; details: vasopressin-mediated turnover of phosphatidylinositol, hV1a cells
T2 construct: host or cells: CHO cells (hV1a cell line), whole adherent cells
Source text: Inhibition of phosphatidylinositol turnover. The physiological effects of vasopressin are mediated through specific G-protein coupled receptors. The vasopressin V1a receptor is coupled to the Gq/G11 family of G proteins and mediates phosphatidylinositol turnover. The agonist or antagonist character of the compounds of the invention may be determined by their ability to inhibit vasopressin-mediated turnover of phosphatidylinositol by the procedure described in the following paragraphs.
Cell culture and labeling of cells. Three days prior to the assay, near-confluent cultures of hV1a cells were dissociated and seeded in 6-well tissue culture plates, about 100 wells being seeded from each 75 cm^2 flask (equivalent to 12:1 split ratio).
Incubations. All assays were in triplicate except for basal and 10 nM AVP (both n=6). AVP ((arginine vasopressin), Peninsula Labs, Belmont, Calif., USA (#8103)) was dissolved in 0.1N acetic acid. Test agents were dissolved in DMSO and diluted in DMSO to 200 times the final test concentration. […] The order of incubations was randomized. Incubations were initiated by removing the prelabeling medium, washing the monolayer once with 1 mL of 0.9% NaCl, and transferring the contents of the assay tubes to corresponding wells. The plates were incubated for 1 hour at 37° C. Incubations were terminated by removing the incubation medium and adding 500 μL of ice cold 5% (w/v) trichloroacetic acid and allowing the wells to stand for 15 min.
Measurement of [^3H]inositol phosphates. BioRad Poly-Prep Econo-Columns were packed with 0.3 mL of AG 1 X-8 100-200 formate form resin. Resin was mixed 1:1 with water and 0.6 mL added to each column. Columns were then washed with 10 mL water. Scintillation vials (20 mL) were placed under each column. For each well, the contents were transferred to a minicolumn, after which the well was washed with 0.5 mL distilled water, which was also added to the minicolumn. The columns were then washed twice with 5 mL of 5 mM myo-inositol to elute free inositol. Aliquots (1 mL) were transferred to 20 mL scintillation vials and 10 mL of Beckman Ready Protein Plus added. After the myo-inositol wash was complete, empty scintillation vials were placed under the columns, and [^3H]inositol phosphates were eluted with three additions of 1 mL 0.5 M ammonium formate containing 0.1 N formic acid. Elution conditions were optimized to recover inositol mono-, bis-, and trisphosphates, without eluting the more metabolically inert tetrakis-, pentakis-, and hexakis-phosphates. To each sample was added 10 mL of a high salt capacity scintillation fluid such as Tru-Count High Salt Capacity or Packard Hionic-Fluor. Inositol lipids were measured by adding 1 mL of 2% sodium dodecyl sulfate (SDS) to each well, allowing the wells to stand for at least 30 min., and transferring the solution to 20 mL scintillation vials, to which 10 mL Beckman Ready Protein Plus scintillation fluid was then added. Samples were counted in a Beckman LS 3801 liquid scintillation counter for 10 min. Total inositol incorporation for each well was calculated as the sum of free inositol, inositol phosphates, and inositol lipids.
Data analysis: concentration-inhibition experiments. Concentration-response curves for AVP and concentration-inhibition curves for test agents versus 10 nM AVP were analyzed by nonlinear least-squares curve-fitting to a 4-parameter logistic function. Parameters for basal and maximal inositol phosphates, EC50 or IC50, and Hill coefficient were varied to achieve the best fit. The curve-fitting was weighted under the assumption that the standard deviation was proportional to dpm of radioactivity. Full concentration-response curves for AVP were run in each experiment, and IC50 values were converted to Ki values by application of the Cheng-Prusoff equation, based on the EC50 for AVP in the same experiment. Inositol phosphates were expressed as dpm per 10^6 dpm of total inositol incorporation.

V1a [2] = target: T1, V1a; set-up: host or cells: human subjects (in vivo); details: oral, subjects 18-35 years; cited from earlier work

T2 sequence (P37288 whole entry): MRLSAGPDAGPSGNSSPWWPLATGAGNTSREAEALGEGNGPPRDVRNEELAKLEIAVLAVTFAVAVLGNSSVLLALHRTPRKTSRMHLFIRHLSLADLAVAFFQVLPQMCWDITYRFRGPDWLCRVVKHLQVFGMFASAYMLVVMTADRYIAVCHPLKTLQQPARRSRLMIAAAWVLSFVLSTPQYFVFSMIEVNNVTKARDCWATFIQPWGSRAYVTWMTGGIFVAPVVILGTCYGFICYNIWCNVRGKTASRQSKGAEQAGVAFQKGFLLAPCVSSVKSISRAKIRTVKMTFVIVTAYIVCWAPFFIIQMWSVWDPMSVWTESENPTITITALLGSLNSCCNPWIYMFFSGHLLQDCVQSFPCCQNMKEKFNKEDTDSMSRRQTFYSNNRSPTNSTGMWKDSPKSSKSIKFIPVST
T1 sequence (P37288 whole entry): as above

| Molecule | Ki (V1a [1]) [nM] | agonist or antagonist character (vasopressin V1a receptor) | IC50 (V1a [1]) [nM] | reduction in pain across three menstrual cycles (V1a [2]) |
| --- | --- | --- | --- | --- |
| O=C(NCc1cccc(C(F)(F)F)c1)C(CCC(=O)N1CCN(CCc2ccccc2)CC1)N1C(=O)C(N2C(=O)OCC2c2ccccc2)C1C=Cc1ccccc1 (single isomer, unassigned) [Example 35] | 1.17 | vasopressin V1a antagonists | – | – |
| O=C(NCc1cccc(C(F)(F)F)c1)C(CCC(=O)N1CCN(C2CCCCC2)CC1)N1C(=O)C(N2C(=O)OCC2c2ccccc2)C1C=Cc1ccccc1 (single isomer, unassigned) [Example 110] | 0.27 | vasopressin V1a antagonists | – | – |
| O=C(NCc1cccc(C(F)(F)F)c1)[C@H](CC(=O)N1CCC(N2CCCCC2)CC1)N1C(=O)[C@@H](N2C(=O)OC[C@@H]2c2ccccc2)[C@H]1/C=C/c1ccccc1 [Example 44] | 1.89 | vasopressin V1a antagonists | – | – |
| O=C(NCc1cccc(C(F)(F)F)c1)[C@H](CCC(=O)N1CCC(N2CCCCC2)CC1)N1C(=O)[C@@H](N2C(=O)OC[C@@H]2c2ccccc2)[C@H]1/C=C/c1ccccc1 [Example 88] | 1.45 | vasopressin V1a antagonists | 2.4 | – |
| O=C(NCc1cccc(C(F)(F)F)c1)[C@@H](CC(=O)N1CCC(N2CCCCC2)CC1)N1C(=O)[C@@H](N2C(=O)OC[C@@H]2c2ccccc2)[C@H]1/C=C/c1ccccc1 [Example 133] | 1.49 | vasopressin V1a antagonists | – | – |
| Cc1ccccc1C(C)(C)NC(=O)[C@H](CCC(=O)N1CCN(C2CCCCC2)CC1)N1C(=O)[C@@H](N2C(=O)OC[C@@H]2c2ccccc2)[C@H]1/C=C/c1ccccc1 [Example 221] | – | – | 5.1 | – |
| O=C(NCc1cccc(C(F)(F)F)c1)[C@H](CCC(=O)N1CCN(C2CCCCC2)CC1)N1C(=O)[C@@H](N2C(=O)OC[C@@H]2c2ccccc2)[C@H]1/C(Cl)=C/c1ccccc1 [Example 226] | 0.3 | – | 0.49 | – |
| CCN1CCN(C(=O)CC[C@@H](C(=O)NCc2cccc(C(F)(F)F)c2)N2C(=O)[C@@H](N3C(=O)OC[C@@H]3c3ccccc3)[C@H]2/C(Cl)=C/c2ccccc2)CC1 [Example 228] | 8.35 | – | 13.6 | – |
| CCCCN1CCN(C(=O)CC[C@@H](C(=O)NCc2cccc(C(F)(F)F)c2)N2C(=O)[C@@H](N3C(=O)OC[C@@H]3c3ccccc3)[C@H]2/C(Cl)=C/c2ccccc2)CC1 [Example 229] | 0.94 | – | 1.53 | – |
| O=C(CC[C@@H](C(=O)NCc1cccc(C(F)(F)F)c1)N1C(=O)C(N2C(=O)OC[C@@H]2c2ccccc2)C1/C(F)=C/c1ccccc1)NC1CN2CCC1CC2 (some centres unmarked) [Example 230F] | – | – | ~100 | – |
| CC(C)N1CCN(C(=O)CC[C@@H](C(=O)NCc2cccc(C(F)(F)F)c2)N2C(=O)[C@@H](N3C(=O)OC[C@@H]3c3ccccc3)[C@H]2/C(Cl)=C/c2ccccc2)CC1 [Example 230] | 4.33 | – | 7.07 | – |
| COc1ccccc1C=CC1C(N2C(=O)OCC2c2ccccc2)C(=O)N1C(CC(=O)N1CCC(N2CCCCC2)CC1)C(=O)NCc1cccc(C(F)(F)F)c1 [Example 231, 2(R)-[[4-(Piperidinyl)piperidinyl]carbonylmethyl]-2-[3(S)-(4(S)-phenyloxazolidin-2-on-3-yl)-4(R)-(2′-methoxystyr-2-yl)azetidin-2-on-1-yl]acetic acid N-(3-trifluoromethylbenzyl)amide] | 3.75 | – | 6.12 | – |
| O=C([C@@H](COCc1ccccc1)N1C(=O)[C@@H](N2C(=O)OC[C@@H]2c2ccccc2)[C@H]1/C=C/c1ccccc1)N1CCC(N2CCCCC2)CC1 [Example 232] | 0.84 | – | 1.37 | – |
| O=C([C@@H](COCc1ccccc1)N1C(=O)[C@@H](N2C(=O)OC[C@@H]2c2ccccc2)[C@H]1/C=C/c1ccccc1)N1CCC(CCN2CCCCC2)CC1 [Example 233] | 0.34 | – | 0.56 | – |
| O=C(C[C@@H](C(=O)NCc1cccc(C(F)(F)F)c1)N1C(=O)[C@@H](N2C(=O)OC[C@@H]2c2ccccc2)[C@H]1CCc1ccccc1)NC1CCN(Cc2ccccc2)CC1 [Example 235, 2(S)-[[(1-Benzylpiperidin-4-yl)amino]carbonylmethyl]-2-[3(S)-(4(S)-phenyloxazolidin-2-on-3-yl)-4(R)-(2-phenyleth-1-yl)azetidin-2-on-1-yl]acetic acid N-(3-trifluoromethylbenzyl)amide] | 23 | – | 37 | – |
| O=C(NCc1cccc(C(F)(F)F)c1)[C@H](CCC(=O)N1CCN(C2CCCCC2)CC1)N1C(=O)[C@@H](N2C(=O)OC[C@@H]2c2ccccc2)[C@H]1CCc1ccccc1 [Example 236, (2S)-[(4-cyclohexylpiperazinyl)carbonylethyl]-2-[3(S)-(4(S)-phenyloxazolidin-2-on-3-yl)-4(R)-(2-phenyleth-1-yl)azetidin-2-on-1-yl]acetic acid N-(3-trifluoromethylbenzyl)amide] | 1.03 | – | 1.68 | – |
| COc1ccc(S(=O)(=O)N2c3ccc(Cl)cc3[C@](O)(c3ccccc3Cl)[C@@H]2C(=O)N2CCC[C@H]2C(N)=O)cc1OC [SR49059] | – | – | – | significant reduction in pain |

Now from value to molecule, other results behind:

| Ki (V1a [1]) [nM] | agonist or antagonist character (vasopressin V1a receptor) | IC50 (V1a [1]) [nM] | Molecule | reduction in pain across three menstrual cycles (V1a [2]) |
| --- | --- | --- | --- | --- |
| 7.8 | – | 12.7 | CCCCN1CCN(C(=O)CC[C@@H](C(=O)NCc2cccc(C(F)(F)F)c2)N2C(=O)C(N3C(=O)OC[C@@H]3c3ccccc3)C2/C(Br)=C/c2ccccc2)CC1 (some centres unmarked) [Example 230L] | – |
| 5.25 | – | 8.6 | C[C@@]1(N2C(=O)OC[C@@H]2c2ccccc2)C(=O)N([C@H](CC(=O)N2CCC(N3CCCCC3)CC2)C(=O)NCc2cccc(C(F)(F)F)c2)[C@@H]1/C=C/c1ccccc1 [Example 234A, 4-(Piperidinyl)-piperidinyl 3(R)-[3(S)-(4(S)-phenyloxazolidin-2-on-3-yl)-3-methyl-4(R)-(styr-2-yl)azetidin-2-on-1-yl]-3-[(3-trifluoromethyl)phenylmethylaminocarbonyl]propanoic acid] | – |
| 5.5 | – | 9 | (2S)-[(4-cyclohexylpiperazinyl)carbonylethyl]-2-[3(S)-(4(S)-phenyloxazolidin-2-on-3-yl)-4(R)-(2-phenyleth-1-yl)azetidin-2-on-1-yl]acetic acid N—[(R)-1,2,3,4-tetrahydronaphth-1-yl]amide [Example 236A] | – |
